Data set [1] is described as follows: Plasma pharmacokinetics in mice (another study, Table 2). The data set is classed as in vivo. The following applies: mouse. Here is the method:
In another study, liposome-entrapped bortezomib was administered to mice and the pharmacokinetic parameters were determined. The liposomes were composed of 22:0PC/mPEG-DSPE and were prepared as described in Example 7.

The conditions of data set [2]: cited from earlier work.
The nature of data set [3]: Pharmacokinetics in plasma, blood and tumor of SCID mice bearing CWR22 tumors (Example 7). Format: in vivo. The following applies: for AUC(0-t): read-out: AUC(0-24 h). The protocol:
Liposome formulations prepared as described herein were administered in vivo to mice. As described in Example 7, liposomes comprised of 22:0PC/mPEG-DSPE (95/5) and containing entrapped bortezomib were prepared and administered intravenously to tumor-bearing mice. A control group of mice was treated with bortezomib sold under the trade name VELCADE®, which is a mixture of bortezomib in mannitol. FIGS. 11A-11C show the concentration, in ng/mL, of bortezomib in plasma (FIG. 11A), blood (FIG. 11B) and tumor (FIG. 11C) for the drug in free form (diamonds) or entrapped in liposomes (squares).
Blood and tumor samples were taken at various time points. The bortezomib concentrations in blood, plasma and tumor tissues were determined by LC-MS.

Where [4] appears, read: male, SCID, mouse, iv, Plasma, mice, i.v. 0.8 mg/kg.
Where [5] appears, read: male, SCID, mouse, iv, Tumor, mice, i.v. 0.8 mg/kg.
[6] abbreviates: male, SCID, mouse, iv, Whole Blood, mice, i.v. 0.8 mg/kg.

Read-outs that look alike come from different tables or passages of the source.

For orientation: Cmax means the maximum level reached in the sampled fluid or tissue. For `CC(C)C[C@H](NC(=O)[C@H](Cc1ccccc1)NC(=O)c1cnccn1)B(O)O` [bortezomib], the concentration at 5 min in data set [1] (intravenous, read-out: Conc. At 5 min.) came to 423 ± 33.6 ng/mL. Also, the AUC(0-t) in data set [1] (iv, read-out: AUC(0-24 h)) amounted to 271 ng·h/mL; in data set [3] (setting [4]), 59800 ng·h/mL; in data set [3] (setting [5]) it was 12800 ng·h/mL; in data set [3] (setting [6]) it was 37200 ng·h/mL. Further, the clearance was 0.897 mL/min in data set [1] (iv, read-out: CL-obs (converted)) and 0.222 mL/min/kg in data set [3] (male, SCID, mouse, intravenous, 0.8 mg/kg, Plasma, estimated using T½α phase, read-out: CL-obs (converted)). The Vd in data set [1] (iv, read-out: Vss) was 0.37 L; in data set [3] (male, SCID, mouse, intravenous, 0.8 mg/kg, Plasma, estimated using T½α phase, read-out: Vss-obs), 0.0427 L/kg. In addition, the maximum tolerated dose is recorded as 1.56 mg/m^2 in data set [2] (intravenous bolus on days 1, 4, 8, and 11 of a 3-week cycle); 1.3 mg/m^2 in data set [2] (patients with solid tumors, intravenously once or twice weekly). Also, the “CL(app) = dose/AUC24 h” value in data set [3] (Whole Blood) was found to be 0.358 mL/min/kg. Also, the Cmax stood at 23500 ng/mL in data set [3] (setting [4]), 674 ng/mL in data set [3] (setting [5]) and 10300 ng/mL in data set [3] (setting [6]). Besides, the half-life in data set [3] (male, SCID, mouse, iv, Plasma, mice, i.v. 0.8 mg/kg, read-out: T1/2(α) (converted)) is 2.7 h.

The record behind these values is US20090092661A1, “LIPOSOME COMPOSITIONS FOR IN VIVO ADMINISTRATION OF BORONIC ACID COMPOUNDS” (priority 2007, published 2009).
